Reference: US20040067998A1, “Antifungal and/or antiparasitic pharmaceutical composition and novel indole derivatives as active principle of such a composition” (priority 2003, published 2004)
Entries after “also recorded” stand apart in the source; their conditions may differ.

Tests used:
[1] = system: Candida albicans (strain n° CA980001); assay: Antifungal activity on a clinical strain of Candida albicans (MTT colorimetric microplate test); format: cell-based; conditions: strain CA980001; read-out: CMI or CI80 Candida albicans (CA980001)
[2] = system: promastigote stage of Leishmania mexicana; assay: Antiparasitic activity on the promastigote form of Leishmania (MTT); format: cell-based; conditions: promastigotes; read-out: CI50 Leishmania mexicana Promastigotes
[3] = system: clinical strains of Candida; assay: Antifungal activity in vitro on several clinical strains of Candida (overall statement over all strains); format: cell-based; conditions: summary of Table 41
[4] = system: Candida albicans (4 strains); assay: Antifungal activity in vitro on clinical strains of Candida: albicans (4 strains); format: cell-based
[5] = system: Candida krusei (4 strains); assay: Antifungal activity in vitro on clinical strains of Candida: krusei (4 strains); format: cell-based
[6] = system: Candida lusitaniae (1 strain); assay: Antifungal activity in vitro on clinical strains of Candida: lusitaniae (1 strain); format: cell-based
[7] = system: Candida parapsilosis (2 strains); assay: Antifungal activity in vitro on clinical strains of Candida: parapsilosis (2 strains); format: cell-based
[8] = system: Candida tropicalis (1 strain); assay: Antifungal activity in vitro on clinical strains of Candida: tropicalis (1 strain); format: cell-based; conditions: strain CT980002 (Candida tropicalis)
[9] = system: Candida albicans (CA98001); assay: Antifungal activity in vivo on a model of disseminated candidiasis; parameters: species or system female Swiss mice
synthesis of ergosterol = assay: Mechanism of action: quantification of ergosterol (HPLC and UV spectrophotometry); format: cell-based
Source text: The principal mechanism of action of the triazole derivatives is the inhibition of the synthesis of ergosterol leading to instability of the cell membrane. […] These two techniques require a prior saponification of the sample followed by an extraction of the sterols present. The results obtained are expressed in μg of ergosterol per g of sample. The activity of the derivatives studied is expressed by their capacity to inhibit the synthesis of ergosterol compared to an untreated control sample.

[10] = Test N°3, 3 × 20 mg/kg/d for 5 d intraperitoneal

## OC(Cn1cncn1)(Cn1ccc2ccccc21)c1ccc(Cl)cc1Cl (stereo not drawn) [compound 78]
[1]
  MIC: <1 nM
[2]
  IC50: < 1000 nM
[3]
  activity against different strains of Candida (in words): most active
[4]; clinical strains
  activity against strains of Candida albicans (in words): active; also recorded: very active
[4]; strain CA980001 (Candida albicans)
  CI80 on clinical strains of Candida: <1 nM
[4]; strain CA980002 (Candida albicans)
  CI80 on clinical strains of Candida: <10 nM
[4]; strain CA980003 (Candida albicans)
  CI80 on clinical strains of Candida: <10 nM
[4]; strain CA980005 (Candida albicans)
  CI80 on clinical strains of Candida: <10 nM
[5]; clinical strains, b748: one strain
  activity against Candida krusei (in words): active; also recorded: very active
[5]; strain CK980001 (Candida krusei)
  CI80 on clinical strains of Candida: <10 nM
[5]; strain CK980002 (Candida krusei)
  CI80 on clinical strains of Candida: 7200 ± 100 nM
[5]; strain CK980003 (Candida krusei)
  CI80 on clinical strains of Candida: 9200 ± 40 nM
[5]; strain CK980004 (Candida krusei)
  CI80 on clinical strains of Candida: 300 ± 100 nM
[6]; clinical strain
  activity against Candida lusitaniae (in words): very active
[6]; strain CL980001 (Candida lusitaniae)
  CI80 on clinical strains of Candida: <10 nM
[7]; clinical strains
  activity against Candida parapsilosis (in words): very active
[7]; strain CP980001 (Candida parapsilosis)
  CI80 on clinical strains of Candida: <10 nM
[7]; strain CP980002 (Candida parapsilosis)
  CI80 on clinical strains of Candida: 530 ± 120 nM
[8]
  CI80 on clinical strains of Candida: <10 nM
[9]; Test N°2, 2 × 30 mg/kg/d for 5 d intraperitoneally, monitored 14 days (78: from D9 to D14)
  effect of treatment on the survival of the animals (in words): significantly prolonged the survival
[9]; [10]
  survival at D14: 100%
  survival at D18: 75%
[9]; Test N°3, 3 × 20 mg/kg/d, experiment continued for 4 more days (D18)
  survival greater than that of the reference treatment (ketoconazole 20 mg/kg): 25%
[9]; Test N°4, 3 × 20 mg/kg/d for 5 d, treatment intraperitoneal or per os
  survival at D10: 100%
Synthesis of ergosterol; preliminary results
  inhibition of the synthesis of ergosterol (in words): strong inhibition
Synthesis of ergosterol; treatment for 24 hours at 10 μg, HPLC
  reduction of the presence of ergosterol (HPLC determination): 70%
Synthesis of ergosterol; treatment for 24 hours at 10 μg, UV spectrophotometry
  ergosterol in the treated sample (UV spectrophotometry, in words): absence of ergosterol
